In patent publication US9458184B2, “Compositions of TLR7 and/or TLR8 agonists conjugated to lipids” (CAYLA, priority 2012, dated 2016):

Columns and labels:
[1] = target: T1, human TLR7 (Homo sapiens, UniProt Q9NYK1); experiment: HEK-Blue hTLR7 NF-κB/AP-1 SEAP reporter cell assay
T1 sequence (Q9NYK1 27-1049): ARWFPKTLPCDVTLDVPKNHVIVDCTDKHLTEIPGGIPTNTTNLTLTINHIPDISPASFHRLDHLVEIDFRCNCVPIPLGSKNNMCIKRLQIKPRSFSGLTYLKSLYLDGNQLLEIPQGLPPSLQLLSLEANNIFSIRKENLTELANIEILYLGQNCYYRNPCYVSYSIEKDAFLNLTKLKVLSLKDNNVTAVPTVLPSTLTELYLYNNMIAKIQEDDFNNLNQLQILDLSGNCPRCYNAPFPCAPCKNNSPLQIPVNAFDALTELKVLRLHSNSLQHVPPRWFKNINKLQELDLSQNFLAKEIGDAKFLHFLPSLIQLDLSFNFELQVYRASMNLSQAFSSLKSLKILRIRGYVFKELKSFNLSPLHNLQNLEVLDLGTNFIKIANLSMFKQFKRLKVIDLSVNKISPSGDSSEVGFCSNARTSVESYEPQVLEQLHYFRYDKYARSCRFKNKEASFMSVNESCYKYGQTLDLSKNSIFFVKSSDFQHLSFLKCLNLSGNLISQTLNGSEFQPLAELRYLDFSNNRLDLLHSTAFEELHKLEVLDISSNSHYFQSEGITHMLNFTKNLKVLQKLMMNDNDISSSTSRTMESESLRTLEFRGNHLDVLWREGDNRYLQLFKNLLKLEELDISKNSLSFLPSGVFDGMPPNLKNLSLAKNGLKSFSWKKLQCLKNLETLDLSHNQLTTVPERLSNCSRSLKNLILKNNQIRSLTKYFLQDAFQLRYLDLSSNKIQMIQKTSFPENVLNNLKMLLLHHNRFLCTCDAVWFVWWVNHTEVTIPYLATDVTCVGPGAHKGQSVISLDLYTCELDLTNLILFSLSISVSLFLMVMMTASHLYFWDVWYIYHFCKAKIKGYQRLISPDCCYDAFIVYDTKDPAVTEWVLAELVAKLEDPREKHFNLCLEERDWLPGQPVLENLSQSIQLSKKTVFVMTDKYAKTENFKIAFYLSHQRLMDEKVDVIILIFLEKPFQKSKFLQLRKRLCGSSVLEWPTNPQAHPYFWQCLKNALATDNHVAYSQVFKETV

[2] = tested on: B16-F1 tumor; experiment: Mouse B16 tumor model, intratumoral injection; format: in vivo, C57BL/6 mice; conditions: by day 28, 3 intra-tumoral injections, 40 μg in 100 μl
[3] = tested on: plasmid DNA; format: physicochemical
[4] = tested on: human HEK293 cell line; experiment: Cell transfection with SEAP plasmid, HEK293; format: cell-based; conditions: complexed with pVitro14 LGFP SEAP plasmid, HEK293, 48 hours
[5] = tested on: mouse B16 melanoma cell line; experiment: Cell transfection with SEAP plasmid, B16; format: cell-based; conditions: complexed with pVitro14 LGFP SEAP plasmid, B16, 48 hours

## CCCCNc1nc(N)c2nc(O)n(Cc3ccc(C(=O)NCC(=O)NCCCC[C@H](NCCCP(=O)(OCCC(C)CCCC(C)CCCC(C)CCCC(C)C)OCCC(C)CCCC(C)CCCC(C)CCCC(C)C)C(=O)NCCCNCCCCNCCCN)cc3)c2n1 (stereo in doubt) [CL493, (S)-bis(3,7,11,15-tetramethylhexadecyl) 19-amino-5-(4-(2-(4-((6-amino-2-(butylamino)-8-hydroxy-9H-purin-9-yl)methyl)benzamido)acetamido)butyl)-6-oxo-4,7,11,16-tetraazanonadecylphosphonate]
[1]
  TLR7 activity (NF-κB/AP-1-inducible SEAP reporter): strong and specific TLR7 activity

## CCCCNc1nc(N)c2nc(O)n(Cc3ccc(C(=O)NCCCNCCCCNCCCNCCCP(=O)(OCCC(C)CCCC(C)CCCC(C)CCCC(C)C)OCCC(C)CCCC(C)CCCC(C)CCCC(C)C)cc3)c2n1 (centres unmarked) [CL346, bis(3,7,11,15-tetramethylhexadecyl) 1-(4-((6-amino-2-(butylamino)-8-hydroxy-9H-purin-9-yl)methyl)phenyl)-1-oxo-2,6,11,15-tetraazaoctadecan-18-ylphosphonate]
[1]
  TLR7 activity (NF-κB/AP-1-inducible SEAP reporter): strong and specific TLR7 activity

## CCCCNc1nc(N)c2nc(O)n(Cc3ccc(C(=O)NCC(=O)NCCCNCCCCNCCCNCCCP(=O)(OCCC(C)CCCC(C)CCCC(C)CCCC(C)C)OCCC(C)CCCC(C)CCCC(C)CCCC(C)C)cc3)c2n1 (centres unmarked) [CL347, bis(3,7,11,15-tetramethylhexadecyl) 1-(4-((6-amino-2-(butylamino)-8-hydroxy-9H-purin-9-yl)methyl)phenyl)-1,4-dioxo-2,5,9,14,18-pentaazahenicosan-21-ylphosphonate]
[1]
  TLR7 activity (NF-κB/AP-1-inducible SEAP reporter): strong and specific TLR7 activity
[2]
  survival of mice: no survival

## CCCCCCCCCCCCCCCCOP(=O)(CCCN[C@@H](CCCCNC(=O)CNC(=O)c1ccc(Cn2c(O)nc3c(N)nc(NCCCC)nc32)cc1)C(=O)NCCCNCCCCNCCCN)OCCCCCCCCCCCCCCCC [CL481, (S)-dihexadecyl 19-amino-5-(4-(2-(4-((6-amino-2-(butylamino)-8-hydroxy-9H-purin-9-yl)methyl)benzamido)acetamido)butyl)-6-oxo-4,7,11,16-tetraazanonadecylphosphonate]
[3]
  complex formation with pDNA (retardation of pDNA migration in gel): inability to form complex with plasmid DNA
[4]
  transfection (SEAP reporter gene expression): inability to transfect cells
[1]
  TLR7 activity (NF-κB/AP-1-inducible SEAP reporter): strong and specific TLR7 activity
[5]
  transfection (SEAP reporter gene expression): inability to transfect cells
